18 compounds from patent publication US20110312945A1, “CRTH2 MODULATORS” (priority 2008, published 2011) can be followed below.

Test [1] relates to DK-PGD2-induced systemic eosinophilia. As to the kind of experiment: DK-PGD2-Induced Systemic Eosinophilia in Rats. The test is classed as in vivo. Particulars: Rattus norvegicus, Eosinophil; female Sprague-Dawley rats, oral dosing 30 min before intracardiac 10 μg DK-PGD2, blood eosinophils at 60 min. The method, then: DK-PGD2-Induced Systemic Eosinophilia in Rats. Female Sprague-Dawley rats (175-250 g) were dosed orally with test compound (or vehicle). Thirty minutes after dosing, animals were anaesthetized with isoflurane. Following induction of anaesthesia, animals received an intracardiac injection of 10 μg DK-PGD2 in 0.3 ml heparinized (10 U/ml) saline. Control animals received an injection of 0.3 ml heparinized saline. Sixty minutes after the intracardiac injection, animals were again anesthetized with isoflurane and a blood sample was drawn from the abdominal aorta (into heparin) while the rat was anaesthetized but not dead. An aliquot of blood (500 μL) was mixed with an equal volume of 4% dextran (mw 500,000) and the erythrocytes were allowed to settle. A cytospin preparation was made from the resulting leukocyte rich fraction (top) and the cytospin was fixed and stained with Diff-Quick Stain kit (Dade Behring Inc, Newark, Del.). An aliquot of the leukocyte rich fraction was taken for total leukocyte count using flow cytometer (Guava EasyCyte Mini system). Differential leukocyte counts were obtained from the cytospin preparations. Blood eosinophil numbers were determined from the total leukocyte count and the percentage eosinophils.

In test [2] the target is T1, CRTH2 (Homo sapiens, UniProt Q9Y5Y4).
T1 construct: polymorphonuclear cells (0.5 ml; 10^6/ml cells) in PBS containing 0.9 mM CaCl2 and 0.5 mM MgCl2; endogenous in cells; host or cells: polymorphonuclear cells (eosinophils gated by flow cytometry)
T1 sequence (Q9Y5Y4 1-395): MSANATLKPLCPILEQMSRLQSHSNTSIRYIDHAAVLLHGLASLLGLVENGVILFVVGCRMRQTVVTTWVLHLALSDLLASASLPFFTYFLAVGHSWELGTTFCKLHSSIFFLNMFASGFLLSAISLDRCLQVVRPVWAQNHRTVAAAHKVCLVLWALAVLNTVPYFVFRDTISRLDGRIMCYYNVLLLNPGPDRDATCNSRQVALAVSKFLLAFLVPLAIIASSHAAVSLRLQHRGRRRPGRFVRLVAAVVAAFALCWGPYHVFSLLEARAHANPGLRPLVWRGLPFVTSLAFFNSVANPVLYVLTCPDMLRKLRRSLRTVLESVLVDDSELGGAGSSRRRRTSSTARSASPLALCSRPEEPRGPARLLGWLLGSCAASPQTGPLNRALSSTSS
As to the kind of experiment: DPBS CD11b Antagonist Assay. The test is classed as cell-based. Particulars: polymorphonuclear cells in PBS, eosinophil CD11b expression, challenge with 15R-Methyl-PGD2 (10 nM). As for the experimental part:
DPBS CD11b Antagonist Assay. The potential CRTH2 antagonist activity of certain compounds was tested using a CD11b expression assay using essentially the method described by Monneret et al. (J Pharmacol Exp Ther 304:349-55, 2003). Briefly, polymorphonuclear cells (0.5 ml; 10^6/ml cells) in PBS containing 0.9 mM CaCl2 and 0.5 mM MgCl2) were preincubated with various concentrations of test compounds at room temperature for 10 minutes before they were challenged with the agonist 15R-Methyl-PGD2 (10 nM). The incubations were terminated by the addition of ice-cold FACSFlow (BD Biosciences; Cat# 342003) and centrifugation (400 g for 5 minutes at 4° C.). The cells were then incubated for 30 minutes at 4° C. with a mixture of PE-labeled mouse anti-human VLA-4 (5 μl; BD Biosciences) and FITC-labeled mouse anti-human CD11b (10 μl; Beckman Coulter). The cells were then incubated with Optilyse C (0.25 ml; Beckman Coulter) for 15 minutes, centrifuged, and then fixed in PBS (0.4 ml; calcium and magnesium free) containing 1% formaldehyde. The distribution of fluorescence intensities among 60,000 cells was measured by flow cytometry. Eosinophils were gated out on the basis of their granularity (high side scatter) and labeling with VLA-4 (PE fluorescence). CD11b was then measured in the eosinophil region on the basis of fluorescence due to FITC. All data were corrected for the value obtained for the corresponding isotope control antibody.

Test [3] has as its target T1, CRTH2. As to the kind of experiment: Human Whole Blood CD11b Antagonist Assay. It is filed as cell-based. The following applies: eosinophil CD11b expression, challenge with 15R-Methyl-PGD2 (10 nM). As for the experimental part: Human Whole Blood CD11b Antagonist Assay (modified from Nicholson, et al. Pulmonary Pharmacology and Therapeutics: 20 (2007); 52-59). The potential CRTH2 antagonist activity of certain compounds was tested in human whole blood using an assay that tests the ability of the compounds to block the CD11b expression in eosinophils by 15-R-methyl-PGD2. A CRTH2 antagonist should block CD11b expression by subsequently added 15-Methyl-PGD2. Human whole blood (200 μL) was incubated at 37° C. for 10 minutes in the presence of various concentrations of test compounds before being challenged with the agonist 15R-Methyl-PGD2 (10 nM). Reactions were terminated by the addition of ice-cold PBS+0.5% BSA+2 mMEDTA (1 mL) and centrifugation (300×g for 5 minutes at 4° C.) Cells were then incubated at 4° C. for 10 min in the presence of human IgG. Cells were then incubated for 30-45 min with a mixture of PE-Cy5-labeled mouse anti-human CD16 (10 ul; BD Biosciences) and FITC-labeled mouse anti-human CD11b (10 μL; Beckman Coulter.) After rinsing (1 mL ice-cold PBS+0.5% BSA+2 mMEDTA), red blood cells were lysed by the addition of 1 mL ice-cold H2O to the cell pellet for 30 sec-1 min immediately followed by the addition of 3.5% NaCl (300 μL.) Cells were then rinsed (2x−1 ml ice cold PBS+0.5% BSA+2 mMEDTA) and fixed in PBS containing 1% formaldehyde. The distribution of fluorescence intensities was measured by flow cytometry. Eosinophils were gated out on the basis of their granularity (high side scatter) and absence of CD-16. CD11b was then measured on this eosinophil population on the basis of fluorescence due to FITC.

pIC50: −log10 of the molar value.

`Cc1c(Cc2ccccc2S(=O)(=O)N2CCCC2)c2c(n1CC(=O)O)CC(C)(C)CC2=O` [Example I-43, 2-(2,6,6-trimethyl-4-oxo-3-(2-(pyrrolidin-1-ylsulfonyl)benzyl)-4,5,6,7-tetrahydro-1H-indol-1-yl)acetic acid]: the ED50 in test [1] was under 1 mg/kg. Further, the pIC50 was over 8.30 against CRTH2 [2] and 7.00 to 8.30 on CRTH2 [3].
In the case of `Cc1c(Cc2ccccc2S(=O)(=O)N(C)c2ccccc2)c2c(n1CC(=O)O)CC(C)(C)CC2=O` [Example I-49, 2-(2,6,6-trimethyl-3-(2-(N-methyl-N-phenylsulfamoyl)benzyl)-4-oxo-4,5,6,7-tetrahydro-1H-indol-1-yl)acetic acid], the ED50 in test [1] is 1 to 10 mg/kg. At CRTH2 [2], this compound gave a negative-log IC50 (pIC50) of over 8.30.
For the compound `Cc1c(Cc2ccc(S(=O)(=O)N3CCCC3)cc2)c2c(n1CC(=O)O)CCC(C)(C)C2` [Example I-4, 2-(2,5,5-Trimethyl-3-(4-(pyrrolidin-1-ylsulfonyl)benzyl)-4,5,6,7-tetrahydro-1H-indol-1-yl)acetic acid], the 50% effective dose (ED50) in test [1] is under 1 mg/kg. Further, the pIC50 against CRTH2 [2] is over 8.30; on CRTH2 [3], 7.00 to 8.30.
With `Cc1c(Cc2ccccc2S(=O)(=O)c2ccccc2)c2c(n1CC(=O)O)CCC(C)(C)C2` [Example I-9, 2-(2,5,5-Trimethyl-3-(2-(phenylsulfonyl)benzyl)-4,5,6,7-tetrahydro-1H-indol-1-yl)acetic acid], the ED50 in test [1] was under 1 mg/kg.
In the case of `Cc1c(Cc2ccc(S(=O)(=O)N3CCOCC3)cc2)c2c(n1CC(=O)O)CCC(C)(C)C2` [Example I-11, 2-(2,5,5-Trimethyl-3-(4-(morpholinosulfonyl)benzyl)-4,5,6,7-tetrahydro-1H-indol-1-yl)acetic acid], the ED50 in test [1] was under 1 mg/kg. The pIC50 at CRTH2 [2] is over 8.30; on CRTH2 [3] it was 6.30 to 7.00.
In test [1], `Cc1c(Cc2ccccc2S(=O)(=O)N2CCCC2)c2c(n1CC(=O)O)CCCCC2` [Example I-22, 2-(2-Methyl-3-(2-(pyrrolidin-1-ylsulfonyl)benzyl)-5,6,7,8-tetrahydrocyclohepta[b]pyrrol-1(4H)-yl)acetic acid] returned an ED50 of under 1 mg/kg. Moreover, on CRTH2 [2], the pIC50 is 7.00 to 8.30.
In the case of `Cc1c(Cc2ccc(S(=O)(=O)NC3CCCCC3)cc2)c2c(n1CC(=O)O)CCCC2` [Example I-2, 2-(3-(4-(N-Cyclohexylsulfamoyl)benzyl)-2-methyl-4,5,6,7-tetrahydro-1H-indol-1-yl)acetic acid], the ED50 in test [1] fell in the range of 1 to 10 mg/kg. In addition, the pIC50 on CRTH2 [2] was over 8.30; against CRTH2 [3], 6.30 to 7.00.
`Cc1c(Cc2ccccc2S(=O)(=O)N2CCOCC2)c2c(n1CC(=O)O)CCC2` [Example I-23, 2-(2-methyl-3-(2-(morpholinosulfonyl)benzyl)-5,6-dihydrocyclopenta[b]pyrrol-1(4H)-yl)acetic acid] registered an ED50 in test [1] of 1 to 10 mg/kg.
In test [1], `Cc1c(Cc2ccccc2S(=O)(=O)N2CCCC2)c2c(n1CC(=O)OC(C)C)CC(C)(C)CC2=O` [Example I-55, isopropyl 2-(2,6,6-trimethyl-4-oxo-3-(2-(pyrrolidin-1-ylsulfonyl)benzyl)-4,5,6,7-tetrahydro-1H-indol-1-yl)acetate] showed an ED50 of under 1 mg/kg. Also, the pIC50 at CRTH2 [2] is 6.30 to 7.00.
`Cc1c(Cc2ccccc2S(=O)(=O)c2ccccc2)c2c(n1CC(=O)O)CCCC2` [Example I-7, 2-(2-methyl-3-(2-(phenylsulfonyl)benzyl)-4,5,6,7-tetrahydro-1H-indol-1-yl)acetic acid]: the pIC50 at CRTH2 [2] was over 8.30; against CRTH2 [3], 7.00 to 8.30.
Regarding `Cc1c(Sc2ccc(S(=O)(=O)N3CCCC3)cc2)c2c(n1CC(=O)O)CC(C)(C)CC2=O` [Example I-42, 2-(2,6,6-trimethyl-4-oxo-3-(4-(pyrrolidin-1-ylsulfonyl)phenylthio)-4,5,6,7-tetrahydro-1H-indol-1-yl)acetic acid], the pIC50 is 6.30 to 7.00 against CRTH2 [2] and under 6.30 on CRTH2 [3].
The compound `CCOC(=O)Cn1c(C)c(Cc2ccccc2S(=O)(=O)N2CCCC2)c2c1CC(C)(C)CC2=O` [Example I-51, ethyl 2-(2,6,6-trimethyl-4-oxo-3-(2-(pyrrolidin-1-ylsulfonyl)benzyl)-4,5,6,7-tetrahydro-1H-indol-1-yl)acetate] registered a 50% effective dose (ED50) in test [1] of under 1 mg/kg. The compound also had a pIC50 against CRTH2 [2] of 6.30 to 7.00.
Consider `Cc1c(Cc2ccc(S(=O)(=O)NC3CC3)cc2)c2c(n1CC(=O)O)CCCC2` [Example I-8, 2-(3-(4-(N-Cyclopropylsulfamoyl)benzyl)-2-methyl-4,5,6,7-tetrahydro-1H-indol-1-yl)acetic acid], for which the pIC50 against CRTH2 [2] was over 8.30; against CRTH2 [3], 7.00 to 8.30.
Consider `Cc1c(Cc2ccc(S(=O)(=O)N3CCCC3)cc2)c2c(n1CC(=O)O)CC(C)(C)CC2=O` [Example I-44, 2-(2,6,6-trimethyl-4-oxo-3-(4-(pyrrolidin-1-ylsulfonyl)benzyl)-4,5,6,7-tetrahydro-1H-indol-1-yl)acetic acid], for which the negative-log IC50 (pIC50) on CRTH2 [2] and against CRTH2 [3] was under 6.30 in each case.
For the compound `Cc1c(Cc2ccccc2S(=O)(=O)N2CCOCC2)c2c(n1[C@@H](C)C(=O)O)CCC(C)(C)C2` [Example I-34, (S)-2-(2,5,5-trimethyl-3-(2-(morpholinosulfonyl)benzyl)-4,5,6,7-tetrahydro-1H-indol-1-yl)propanoic acid], the figures for the pIC50 against CRTH2 [2] and against CRTH2 [3] were 7.00 to 8.30 and under 6.30, respectively.
For `CCOC(=O)N1CCN(S(=O)(=O)c2ccc(Cc3c4c(n(CC(=O)O)c3C)CCCC4)cc2)CC1` [Example I-5, 2-(3-(4-(4-(Ethoxycarbonyl)piperazin-1-ylsulfonyl)benzyl)-2-methyl-4,5,6,7-tetrahydro-1H-indol-1-yl)acetic acid], the pIC50 against CRTH2 [2] was over 8.30; on CRTH2 [3], 7.00 to 8.30.
On to `Cc1c(Cc2ccc(S(=O)(=O)N3CCOCC3)cc2)c2c(n1CC(=O)O)CCCC2` [Example I-6, 2-(2-Methyl-3-(4-(morpholinosulfonyl)benzyl)-4,5,6,7-tetrahydro-1H-indol-1-yl)acetic acid], for which the pIC50 against CRTH2 [2] was over 8.30; against CRTH2 [3], 6.30 to 7.00.
The compound `Cc1c(Cc2ccc(S(=O)(=O)N3CCCC3)cc2)c2c(n1CC(=O)O)CCC2` [Example I-19, 2-(2-Methyl-3-(4-(pyrrolidin-1-ylsulfonyl)benzyl)-5,6-dihydrocyclopenta[b]pyrrol-1(4H)-yl)acetic acid] displayed an ED50 in test [1] of under 1 mg/kg. Moreover, the pIC50 against CRTH2 [2] is 7.00 to 8.30.

One may read the ED50 as the dose that gives a 50% effect, or the effect in half of the subjects. A lower ED50 goes with an effect at a small dose. In general, pIC50 refers to the negative decadic logarithm of the IC50, by convention in mol/L. Lower therefore signals a large IC50.
